Experimental data reported in US9980948B2, “Azaindole derivative having AMPK-activating activity” (Shionogi & Co., Ltd., priority 2014, dated 2018).
Like-named read-outs stand apart in the source and are kept apart here.

Molecular target: T1, Human AMPK α2β2γ1 (Homo sapiens, UniProt O43741+P54646)
T1 construct: The full length cDNAs of human AMPK β2 (NM_005399.3) and human AMPK α2 (NM_006252.3); The full length cDNAs of human AMPK β2 (NM_005399.3); the full length cDNA of human AMPK γ1 (NM_002733.3) had been inserted into pET28b(+); 6xHis (N); made in house; host or cells: Escherichia coli BL21 CodonPlus (DE3)-RTL (AMPK); BL21 Star (DE3) (CaMKKβ)
Assay: Test Example 2: evaluation of an activator for AMP-activated protein kinase (AMPK), human AMPK α2β2γ1 phosphorylated with CaMKK2, FL-Peptide 7 mobility shift
Assay type: biochemical
Details: for Emax: read-out: Emax (maximum rate of increase in activity within the measurement range)
Protocol: The full length cDNAs of human AMPK β2 (NM_005399.3) and human AMPK α2 (NM_006252.3) were inserted into the MCS1 and MCS2 of the pETDuet-1 vector to prepare a human AMPK β2 and human AMPK α2 (6× His tag at the 5′ terminus) expressing plasmid. The plasmid was cotransfected with an expression plasmid, in which the full length cDNA of human AMPK γ1 (NM_002733.3) had been inserted into pET28b(+), into BL21 CodonPlus (DE3)-RTL to obtain an expression strain. The expression strain was cultured in TB medium, followed by induction with 0.5 mM IPTG, and cultured at 25° C. for 3 hours and then harvested.
An expression vector, in which the full length cDNA of human CAMKK β (NM_172226.1) had been inserted into pGEX-6P-3, was transfected into BL21 Star (DE3). The expression strain was cultured in TB medium, followed by induction with 0.5 mM IPTG, and cultured at 25° C. for 3 hours and then harvested.
Thus, phosphorylation treatment was carried out as pretreatment.
Human AMPK α2β2γ1 in an amount to give a conversion rate of approximately 10% by reaction for 2 hours, and CaMKK2 in an amount capable of sufficiently imparting activity to AMPK for one hour were mixed in a buffer solution consisting of a 50 mM HEPES-NaOH buffer solution (pH 7.0), 100 mM NaCl, 5 mM magnesium chloride, 0.1% bovine serum albumin, 0.2 mM sodium orthovanadate(V), 1 mM ethylene glycol-bis(2-aminoethyl ether)-N,N,N′,N′-tetraacetic acid (EGTA), 5 mM disodium β-glycerophosphate, 1 mM dithiothreitol and 0.2 mM ATP, and the obtained liquid was left to stand at 25° C. for 1 to 1.5 hours to sufficiently phosphorylate AMPK.
The obtained liquid was left to stand for 10 minutes.
The obtained liquid was allowed to react at 25° C. for 2 hours, and 10 μl of 20 mM EDTA was then added thereto to stop the reaction.
To detect phosphorylated fluorescent substrates, the reaction liquid was applied to a measuring device, LabChip EZ Reader II manufactured by Caliper Life Science, Inc., for detecting fluorescence by using differences in mobility due to differences in charge. The setting conditions for the device were pressure, −1.5 PSI; upstream voltage, −2250 V; downstream voltage, −400 V; post sample buffer sip time, 40 seconds; final delay, 120 seconds; and peak order, Product First.
A conversion rate was calculated from the peak heights of the resulting substrate and product. The conversion rate when not containing a compound was used as a control, and a concentration dependent curve was made by plotting the rate of increase in activity to the control at each concentration of a compound.

[1] = human AMPK α2β2γ1, 0.2 mM ATP final, 25° C., 2 hours
[2] = human AMPK α2β2γ1, relative to control (100%)

T1 sequence (P54646 whole entry): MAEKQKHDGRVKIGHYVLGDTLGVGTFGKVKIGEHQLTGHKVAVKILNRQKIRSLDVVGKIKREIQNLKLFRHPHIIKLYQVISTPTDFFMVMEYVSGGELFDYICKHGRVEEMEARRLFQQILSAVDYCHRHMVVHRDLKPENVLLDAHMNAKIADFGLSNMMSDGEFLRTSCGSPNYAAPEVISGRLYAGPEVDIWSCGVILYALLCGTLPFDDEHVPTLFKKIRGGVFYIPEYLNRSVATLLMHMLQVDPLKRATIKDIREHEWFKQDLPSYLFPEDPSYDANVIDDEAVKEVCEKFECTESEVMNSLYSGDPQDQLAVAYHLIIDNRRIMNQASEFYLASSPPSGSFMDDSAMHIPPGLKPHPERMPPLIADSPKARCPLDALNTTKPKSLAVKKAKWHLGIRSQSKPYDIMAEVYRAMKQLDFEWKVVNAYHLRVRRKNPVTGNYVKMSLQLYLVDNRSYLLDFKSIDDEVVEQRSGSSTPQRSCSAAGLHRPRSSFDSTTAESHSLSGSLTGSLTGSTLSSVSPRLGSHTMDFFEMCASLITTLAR
T1 sequence (O43741 whole entry): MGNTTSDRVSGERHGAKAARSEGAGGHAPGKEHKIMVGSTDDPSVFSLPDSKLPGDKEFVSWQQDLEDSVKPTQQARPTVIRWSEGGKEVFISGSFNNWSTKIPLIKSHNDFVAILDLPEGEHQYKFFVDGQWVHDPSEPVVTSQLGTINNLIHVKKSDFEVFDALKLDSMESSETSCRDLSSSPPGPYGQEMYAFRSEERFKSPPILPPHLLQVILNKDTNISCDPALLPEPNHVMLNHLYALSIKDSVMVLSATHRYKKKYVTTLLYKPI
T1 sequence (P54619 whole entry partner): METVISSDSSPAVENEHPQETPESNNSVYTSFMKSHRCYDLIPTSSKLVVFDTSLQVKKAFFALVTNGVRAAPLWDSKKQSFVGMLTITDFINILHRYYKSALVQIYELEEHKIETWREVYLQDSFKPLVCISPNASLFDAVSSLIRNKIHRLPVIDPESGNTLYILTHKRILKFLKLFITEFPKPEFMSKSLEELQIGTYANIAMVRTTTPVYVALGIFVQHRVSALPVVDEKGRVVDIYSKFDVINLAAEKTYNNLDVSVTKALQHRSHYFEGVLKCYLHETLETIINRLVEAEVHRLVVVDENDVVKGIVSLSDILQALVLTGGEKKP

Row | SMILES | EC150 (compound concentration showing 150% relative to the control (100%)) [1] [nM] | Emax [2] [%] | Emax (maximum rate of increase in activity within the measurement range) [2] [%] | EC150 (compound concentration showing 150% relative to the control (100%)) [nM] | Emax (maximum rate of increase in activity within the measurement range) [%]
1 | O[C@@H]1CO[C@H]2[C@@H]1OC[C@H]2Oc1cc2nc(-c3ccc(N4CCOCC4)cc3)c(F)cc2[nH]1 [Compound I-1-39] | 5.3 | 788 | – | – | –
2 | CC(C)(C(=O)O)[C@H]1CC[C@H](Oc2cc3nc(-c4ccc(N5CC[C@@H](O)C5)cc4)c(Cl)cc3[nH]2)CC1 [Compound I-1-43] | 98 | 302 | – | – | –
3 | O[C@@H]1CO[C@H]2[C@@H]1OC[C@H]2Oc1[nH]c2cc(F)c(-c3ccc(C4=CCOCC4)cc3)nc2c1Cl [Compound I-1-45] | 13 | 718 | – | – | –
4 | O=C(CO)N1CC=C(c2ccc(-c3nc4cc(O[C@@H]5CO[C@H]6[C@@H]5OC[C@H]6O)[nH]c4cc3F)cc2)CC1 [Compound I-1-50] | 2.4 | 827 | – | – | –
5 | O=C(O)C1CC=C(c2ccc(-c3nc4c(Cl)c(O[C@@H]5CO[C@H](CO)C5)[nH]c4cc3Cl)cc2)CC1 (stereo partly shown) [Compound I-1-55] | 54 | 689 | – | – | –
6 | N#Cc1c(O[C@@H]2CO[C@H]3[C@@H]2OC[C@H]3O)[nH]c2cc(Cl)c(-c3ccc(-c4ccc(-n5cncn5)cc4)cc3)nc12 [Compound I-1-58] | 3.8 | 836 | – | – | –
7 | O[C@@H]1CO[C@H]2[C@@H]1OC[C@H]2Oc1[nH]c2cc(Cl)c(-c3ccc(C4(O)CCC4)cc3)nc2c1Cl [Compound I-1-62] | 5.7 | 851 | – | – | –
8 | C/C(=C\CNC(=O)CO)c1ccc(-c2nc3c(Cl)c(O[C@@H]4CO[C@H]5[C@@H]4OC[C@H]5O)[nH]c3cc2Cl)cc1 [Compound I-1-63] | 6.3 | 791 | – | – | –
9 | O[C@@H]1CO[C@H]2[C@@H]1OC[C@H]2Oc1cc2nc(-c3ccc(N4CCOCC4)cc3)c(C(F)(F)F)cc2[nH]1 [Compound I-2-2] | 38 | – | 511 | – | –
10 | O[C@@H]1CO[C@H]2[C@@H]1OC[C@H]2Oc1cc2nc(-c3ccc(N4CCOCC4)cc3)c(Cl)c(F)c2[nH]1 [Compound I-2-3] | 6.9 | 508 | – | – | –
11 | N#Cc1c(Cl)c(-c2ccc(N3CCOCC3)cc2)nc2cc(O[C@@H]3CO[C@H]4[C@@H]3OC[C@H]4O)[nH]c12 [Compound I-2-7] | – | – | – | 36 | 322
12 | O[C@@H]1CO[C@H]2[C@@H]1OC[C@H]2Oc1[nH]c2cc(Cl)c(-c3ccc(N4CCOCC4)cc3)nc2c1F [Compound I-2-8] | 8.9 | – | 447 | – | –
13 | O[C@@H]1CO[C@H]2[C@@H]1OC[C@H]2Oc1[nH]c2cc(Cl)c(-c3ccc(N4CCOCC4)cc3)nc2c1Br [Compound I-2-9] | 66 | – | 395 | – | –
14 | O[C@@H]1CO[C@H]2[C@@H]1OC[C@H]2Oc1[nH]c2cc(C(F)(F)F)c(-c3ccc(N4CCOCC4)cc3)nc2c1F [Compound I-2-10] | 49 | – | 506 | – | –
15 | Cn1cc(-c2ccc(-c3nc4c(C#N)c(O[C@@H]5CO[C@H]6[C@@H]5OC[C@H]6O)[nH]c4cc3Cl)cc2)cn1 [Compound I-2-11] | 40 | 867 | – | – | –
16 | N#Cc1cc2[nH]c(O[C@@H]3CO[C@H]4[C@@H]3OC[C@H]4O)cc2nc1-c1ccc(C2=CCOCC2)cc1 [Compound I-2-19] | 1.6 | 916 | – | – | –
17 | Cn1ccc2cc(-c3nc4c(C#N)c(O[C@@H]5CO[C@H]6[C@@H]5OC[C@H]6O)[nH]c4cc3Cl)ccc21 [Compound I-2-28] | 57 | 446 | – | – | –
18 | O=C(CO)N1CC=C(c2ccc(-c3nc4cc(O[C@@H]5CO[C@H](CO)C5)[nH]c4cc3F)cc2)CC1 [Compound I-2-33] | 2.5 | 511 | – | – | –
19 | O[C@@H]1CO[C@H]2[C@@H]1OC[C@H]2Oc1cc2nc(-c3ccc(C4(O)CCC4)cc3)c(F)cc2[nH]1 [Compound I-2-34] | 20 | 495 | – | – | –
20 | N#Cc1cc2[nH]c(O[C@@H]3CO[C@H]4[C@@H]3OC[C@H]4O)cc2nc1-c1ccc(N2CCOCC2)cc1F [Compound I-2-42] | 48 | 481 | – | – | –
21 | N#Cc1cc2[nH]c(O[C@@H]3CO[C@H]4[C@@H]3OC[C@H]4O)cc2nc1-c1ccc(-c2ccccc2)cc1 [Compound I-2-45] | 19 | 492 | – | – | –
22 | N#Cc1c(O[C@@H]2CO[C@H]3[C@@H]2OC[C@H]3O)[nH]c2cc(Cl)c(-c3ccc(-c4cnn(CCO)c4)cc3)nc12 [Compound I-2-46] | 77 | 510 | – | – | –
23 | O[C@@H]1CO[C@H]2[C@@H]1OC[C@H]2Oc1cc2nc(-c3ccc(C4CCCCO4)cc3)c(F)cc2[nH]1 (stereo partly shown) [Compound I-2-57] | 10 | 484 | – | – | –
24 | O[C@@H]1CO[C@H]2[C@@H]1OC[C@H]2Oc1cc2nc(-c3ccc([C@@H]4C[C@@H](O)[C@@H](O)CO4)cc3)c(Cl)cc2[nH]1 [Compound I-2-61-a] | 6.4 | 442 | – | – | –
25 | O[C@@H]1CO[C@H]2[C@@H]1OC[C@H]2Oc1cc2nc(-c3ccc([C@H]4C[C@H](O)[C@H](O)CO4)cc3)c(F)cc2[nH]1 [Compound I-2-61-b] | 6.4 | 442 | – | – | –
26 | O[C@@H]1CO[C@H]2[C@@H]1OC[C@H]2Oc1cc2nc(-c3ccc(C4CCCO4)cc3)c(F)cc2[nH]1 (stereo partly shown) [Compound I-2-68] | 26 | 382 | – | – | –
27 | Cn1ncc2cc(-c3nc4cc(O[C@@H]5CO[C@H]6[C@@H]5OC[C@H]6O)[nH]c4cc3F)ccc21 [Compound I-2-69] | 58 | 521 | – | – | –
28 | Cn1c(-c2nc3cc(O[C@@H]4CO[C@H]5[C@@H]4OC[C@H]5O)[nH]c3cc2F)cc2ccccc21 [Compound I-2-70] | 38 | 511 | – | – | –
29 | COc1ccc(-c2nc3cc(O[C@@H]4CO[C@H]5[C@@H]4OC[C@H]5O)[nH]c3cc2F)cc1 [Compound I-2-71] | 89 | 446 | – | – | –
